# Assay results published in patent publication US20130116231A1, “TYROSINE KINASE INHIBITORS” (Merck Sharp & Dohme Corp., priority 2010, published 2013).
# Target: T1, human c-Met (Homo sapiens, UniProt P08581)
# T1 construct: Recombinant GST-tagged cytosolic domains of human c-Met; 6xHis; made in house; host or cells: Sf9 or Sf21 insect cells (baculovirus)
# Test: in vitro kinase assay (homogeneous time-resolved tyrosine kinase assay, METKA)
# Type: biochemical
# Conditions: recombinant GST-tagged c-Met cytosolic domain, HTRF, 50 μM MgATP; read-out: Biological Activity (METKA IC50) Activity Code
# Text: Recombinant GST-tagged cytosolic domains of human c-Met and other receptor tyrosine kinases including mouse c-Met, human Ron, KDR, IGFR, EGFR, FGFR, Mer, TrkA and Tie2 are used to determine whether the compounds of the instant invention modulate the enzymatic activities of these kinases.
# Soluble recombinant GST-tagged cytosolic domains of c-Met and other receptor tyrosine kinases are expressed in a baculovirus system (Pharmingen) according to a protocol recommended by the manufacturer. The c-DNA encoding each cytosolic domain is subcloned into a baculovirus expression vector (pGcGHLT-A, B or C, Pharmingen) containing an in frame 6× histidine tag and a GST tag. The resulting plasmid construct and BaculoGold baculovirus DNA (Pharmingen) are used to co-transfect Sf9 or Sf21 insect cells. After confirming expression of GST-tagged kinase fusion, a high titer recombinant baculovirus stock is produced, expression conditions are optimized, and a scaled up expression of rat KDR-GST fusion is performed. The fusion kinase is then purified from the insect cell lysate by affinity chromatography using glutathione agarose (Pharmingen). The purified protein is dialyzed against 50% glycerol, 2 mM DTT, 50 mM Tris-HCl (pH 7.4) and stored at −20° C. The protein concentrations of the fusion proteins are determined using Coomassie Plus Protein Assay (Pierce) with BSA as standard.
# The kinase activities of c-Met and other kinases are measured using a modified version of the homogeneous time-resolved tyrosine kinase assay described by Park et al. (1999, Anal. Biochem. 269:94-104).
# The procedure for determining the potency of a compound to inhibit c-Met kinase comprises the following steps: • 1. Prepare 3-fold serial diluted compound solutions in 100% dimethyl sulfoxide (DMSO) at 20× of the desired final concentrations in a 96 well plate. • 2. Prepare a master reaction mix containing 6.67 mM MgCl2, 133.3 mM NaCl, 66.7 mM Tris-HCl (pH 7.4), 0.13 mg/ml BSA, 2.67 mM dithiothreitol, 0.27 nM recombinant c-Met and 666.7 nM biotinylated synthetic peptide substrate (biotin-ahx-EQEDEPEGDYFEWLE-CONH2) (SEQ.ID.NO.:1). • 3. In a black assay plate, add 2.5 μl of compound solution (or DMSO) and 37.5 μl of master reaction mix per well. Initiate the kinase reaction by adding 10 μl of 0.25 mM MgATP per well. Allow the reactions to proceed for 80 min at room temperature. The final conditions for the reaction are 0.2 nM c-Met, 0.5 μM substrate, 50 μM MgATP, […], 100 mM NaCl, 2 mM DTT, 0.1 mg/ml BSA, 50 mM Tris (pH 7.4) and 5% DMSO. • 4. Stop the kinase reaction with 50 μl of Stop/Detection buffer containing 10 mM EDTA, 25 mM HEPES, 0.1% TRITON X-100, 0.126 μg/ml Eu-chelate labeled anti-phosphotyrosine antibody PY20 (cat. #AD0067, PerkinElmer) and 45 μg/ml Streptavidin-allophycocyanin conjugate (cat. #PJ25S, Prozyme). • 5. Read HTRF signals on a Victor reader (PerkinElmer) in HTRF mode after 60 min. • 6. IC50 is determined by fitting the observed relationship between compound concentration and HTRF signal with a 4-parameter logistic equation. Essentially the same procedure was used to determine the potency of compounds to inhibit mouse c-Met, human Ron, KDR, IGFR, EGFR, FGFR, Mer, TrkA and Tie2 except that the concentration of enzyme varied in individual assays (0.2 nM mouse c-Met; 2.5 nM Ron, 8 nM KDR; 0.24 nM IGFR; 0.24 nM EGFR; 0.14 nM FGFR; 16 nM Mer; 8 nM TrkA; 8 nM Tie2).
# T1 sequence (P08581 956-1390 limits assumed): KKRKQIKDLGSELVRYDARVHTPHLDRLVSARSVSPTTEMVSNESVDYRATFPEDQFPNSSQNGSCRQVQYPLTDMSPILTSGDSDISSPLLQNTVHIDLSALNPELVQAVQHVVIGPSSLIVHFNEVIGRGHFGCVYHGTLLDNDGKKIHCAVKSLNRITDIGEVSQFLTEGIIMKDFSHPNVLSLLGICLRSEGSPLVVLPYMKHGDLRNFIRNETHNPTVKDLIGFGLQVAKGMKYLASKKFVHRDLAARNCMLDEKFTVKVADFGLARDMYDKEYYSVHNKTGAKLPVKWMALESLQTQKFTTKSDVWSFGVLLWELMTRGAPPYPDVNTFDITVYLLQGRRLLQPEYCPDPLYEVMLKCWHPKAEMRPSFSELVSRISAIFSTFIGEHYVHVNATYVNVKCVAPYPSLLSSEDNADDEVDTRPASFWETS
row,SMILES,IC50 [nM]
1,"O=c1ccn(-c2cccc(Br)c2)nc1COc1ccc2ncccc2c1 [Example 20, 1-(3-Bromophenyl)-3-[(quinolin-6-yloxy)methyl]pyridazin-4(1H)-one]",< 100
2,"Cn1cc(-n2ccc(=O)c(COc3ccc4ncc(OCC5CCOC5)cc4c3)n2)cn1 (centres unmarked) [Example 25, 1-(1-methyl-1H-pyrazol-4-yl)-3-({[3-(tetrahydrofuran-3-ylmethoxy)quinolin-6-yl]oxy}methyl)pyridazin-4(1H)-one]",< 100
3,"Cn1cc(-n2ccc(=O)c(COc3ccc4ncncc4c3)n2)cn1 [Example 27, 1-(1-methyl-1H-pyrazol-4-yl)-3-[(quinazolin-6-yloxy)methyl]pyridazin-4(1H)-one]",100 to 1000
4,"COCCOc1cnc2ccc(OCc3nn(-c4ccc(F)c(F)c4)ccc3=O)cc2c1 [Example 30, 1-(3,4-difluorophenyl)-3-({[3-(2-methoxyethoxy)quinolin-6-yl]oxy}methyl)pyridazin-4(1H)-one]",< 100
5,"Cn1cc(-n2ccc(=O)c(COc3cc(F)c4ncccc4c3)n2)cn1 [Example 32, 3-{[(8-fluoroquinolin-6-yl)oxy]methyl}-1-(1-methyl-1H-pyrazol-4-yl)pyridazin-4(1H)-one]",1000 to 3000
6,"CCOCCOc1ccnc2ccc(OCc3nn(-c4cnn(C)c4)ccc3=O)cc12 [Example 33, 3-({[4-(2-ethoxyethoxy)quinolin-6-yl]oxy}methyl)-1-(1-methyl-1H-pyrazol-4-yl)pyridazin-4(1H)-one]",100 to 1000
7,"COc1cnc2ccc(OCc3nn(-c4cnn(C)c4)ccc3=O)cc2c1 [Example 35, 3-{[(3-methoxyquinolin-6-yl)oxy]methyl}-1-(1-methyl-1H-pyrazol-4-yl)pyridazin-4(1H)-one]",< 100
8,"Cn1cc(-n2ccc(=O)c(COc3ccc4ncc(F)cc4c3)n2)cn1 [Example 37, 3-{[(3-fluoroquinolin-6-yl)oxy]methyl}-1-(1-methyl-1H-pyrazol-4-yl)pyridazin-4(1H)-one]",< 100
9,"COCCOc1cnc2ccc(OCc3nn(-c4cccc(Br)c4)ccc3=O)cc2c1 [Example 38, 1-(3-bromophenyl)-3-({[3-(2-methoxyethoxy)quinolin-6-yl]oxy}methyl)pyridazin-4(1H)-one]",< 100
10,"CCOc1ccnc2ccc(OCc3nn(-c4cnn(C)c4)ccc3=O)cc12 [Example 43, 3-{[(4-Ethoxyquinolin-6-yl)oxy]methyl}-1-(1-methyl-1H-pyrazol-4-yl)pyridazin-4(1H)-one]",< 100
11,"CCOc1cnc2ccc(OCc3nn(-c4cc(Cl)cc(C#N)c4)ccc3=O)cc2c1 [Example 45, 3-chloro-5-[3-{[(3-ethoxyquinolin-6-yl)oxy]methyl}-4-oxopyridazin-1(4H)-yl]benzonitrile]",< 100
12,"CCOc1cnc2ccc(OCc3nn(-c4ccc(F)c(F)c4)ccc3=O)cc2c1 [Example 46, 1-(3,4-difluorophenyl)-3-{[(3-ethoxyquinolin-6-yl)oxy]methyl}pyridazin-4(1H)-one]",< 100
13,"CCOc1cnc2ccc(OCc3nn(-c4cc(F)cc(F)c4)ccc3=O)cc2c1 [Example 47, 1-(3,5-difluorophenyl)-3-{[(3-ethoxyquinolin-6-yl)oxy]methyl}pyridazin-4(1H)-one]",< 100

# More lines, now with the values ahead:
row,IC50 [nM],SMILES
1,< 100,"Cn1cc(-n2ccc(=O)c(COc3ccc4[nH]c(-c5ccccc5)nc4c3)n2)cn1 [Example 19, 1-(1-methyl-1H-pyrazol-4-yl)-3-{[(2-phenyl-1H-benzimidazol-5-yl)oxy]methyl}pyridazin-4(1H)-one]"
2,< 100,"O=c1ccn(-c2cncc(Br)c2)nc1COc1ccc2ncccc2c1 [Example 21, 1-(5-bromopyridin-3-yl)-3-[(quinolin-6-yloxy)methyl] pyridazin-4(1H)-one]"
3,< 100,"CCn1cc(-n2ccc(=O)c(COc3ccc4ncccc4c3)n2)cn1 [Example 22, 1-(1-ethyl-1H-pyrazol-4-yl)-3-[(quinolin-6-yloxy)methyl] pyridazin-1(4H)-one]"
4,< 100,"CCOc1cnc2ccc(OCc3nn(-c4cnn(C)c4)ccc3=O)cc2c1 [Example 23, 3-{[(3-Ethoxyquinolin-6-yl)oxy]methyl}-1-(1-methyl-1H-pyrazol-4-yl)pyridazin-4(1H)-one]"
5,< 100,"COCCOc1cnc2ccc(OCc3nn(-c4cnn(C)c4)ccc3=O)cc2c1 [Example 24, 3-({[3-(2-methoxyethoxy)quinolin-6-yl]oxy}methyl)-1-(1-methyl-1H-pyrazol-4-yl)pyridazin-4(1H)-one]"
6,< 100,"Cn1cc(-n2ccc(=O)c(COc3ccc4ncc(OCC5(C)COC5)cc4c3)n2)cn1 [Example 26, 3-[({3-[(3-methyloxetan-3-yl)methoxy]quinolin-6-yl}oxy)methyl]-1-(1-methyl-1H-pyrazol-4-yl)pyridazin-4(1H)-one]"
7,< 100,"COCCOc1cnc2ccc(OCc3nn(-c4cc(F)cc(C#N)c4)ccc3=O)cc2c1 [Example 28, 3-fluoro-5-[3-({[3-(2-methoxyethoxy)quinolin-6-yl]oxy}methyl)-4-oxopyridazin-1(4H)-yl]benzonitrile]"
8,< 100,"COCCOc1cnc2ccc(OCc3nn(-c4cc(Cl)cc(C#N)c4)ccc3=O)cc2c1 [Example 29, 3-chloro-5-[3-({[3-(2-methoxyethoxy)quinolin-6-yl]oxy}methyl)-4-oxopyridazin-1(4H)-yl]benzonitrile]"
9,< 100,"COCCOc1cnc2ccc(OCc3nn(-c4cc(F)cc(F)c4)ccc3=O)cc2c1 [Example 31, 1-(3,5-difluorophenyl)-3-({[3-(2-methoxyethoxy)quinolin-6-yl]oxy}methyl)pyridazin-4(1H)-one]"
10,100 to 1000,"COCCOc1ccnc2ccc(OCc3nn(-c4cnn(C)c4)ccc3=O)cc12 [Example 34, 3-({[4-(2-methoxyethoxy)quinolin-6-yl]oxy}methyl)-1-(1-methyl-1H-pyrazol-4-yl)pyridazin-4(1H)-one]"
11,< 100,"CCn1cc(-n2ccc(=O)c(COc3ccc4ncc(OCCOC)cc4c3)n2)cn1 [Example 36, 1-(1-ethyl-1H-pyrazol-4-yl)-3-({[3-(2-methoxyethoxy)quinolin-6-yl]oxy}methyl)pyridazin-4(1H)-one]"
12,100 to 1000,"Cn1cc(-n2ccc(=O)c(COc3ccc4ncc(-n5cnnc5)cc4c3)n2)cn1 [Example 39, 1-(1-methyl-1H-pyrazol-4-yl)-3-({[3-(4H-1,2,4-triazol-4-yl)quinolin-6-yl]oxy}methyl)pyridazin-4(1H)-one]"
13,< 100,"COCc1cn(-c2cnc3ccc(OCc4nn(-c5cnn(C)c5)ccc4=O)cc3c2)nn1 [Example 40, 3-[({3-[4-(methoxymethyl)-1H-1,2,3-triazol-1-yl]quinolin-6-yl}oxy)methyl]-1-(1-methyl-1H-pyrazol-4-yl)pyridazin-4(1H)-one]"
14,100 to 1000,"Cn1cc(-n2ccc(=O)c(COc3ccc4ncc(-n5cc(COC6CCNCC6)nn5)cc4c3)n2)cn1 [Example 41, 1-(1-methyl-1H-pyrazol-4-yl)-3-{[(3-{4-[(piperidin-4-yloxy)methyl]-1H-1,2,3-triazol-1-yl}quinolin-6-yl)oxy]methyl}pyridazin-4(1H)-one]"
15,< 100,"Cn1cc(-n2ccc(=O)c(COc3ccc4ncc(-n5ccnn5)cc4c3)n2)cn1 [Example 42, 1-(1-Methyl-1H-pyrazol-4-yl)-3-({[3-(1H-1,2,3-triazol-1-yl)quinolin-6-yl]oxy}methyl)pyridazin-4(1H)-one]"
16,< 100,"CCOc1cnc2ccc(OCc3nn(-c4cc(F)cc(C#N)c4)ccc3=O)cc2c1 [Example 44, 3-[3-{[(3-ethoxyquinolin-6-yl)oxy]methyl}-4-oxopyridazin-1(4H)-yl]-5-fluorobenzonitrile]"
